Data as given in patent US5192799A, “Coumaran group containing amine compounds and their acid addition salts and quaternary ammonium salts and the use thereof as anti arrhythmic agents and as psychotropic agents” (Mitsui Petrochemical Industries, Ltd., priority 1987, dated 1993).

Columns and labels:
Purkinje fiber = test: Effect on APD (APD75, field-stimulated right ventricular free wall); type: cell-based, adult mongrel dog; details: 20 minutes incubation, 37° C., 1 Hz, control before drug = 100%; for activation at 1 µg/mL / activation at 3 µg/mL / activation at 10 µg/mL: Canis lupus familiaris, purkinje, 20 min, read-out: APD75 % (percent change in APD75)
Method: The pharmacological effects of the compounds of this invention represented by general formula (1) were studied. By using the heart of an adult mongrel dog, the activity of the compounds of general formula (1) were tested in vitro and in vivo. The heart of an anaethetized dog was extracted and suspended in a chamber at 37° C. in Tyrode's solution. The drug was added to Tyrode's solution being perfused through the heart specimen, and electrophysiological effects of the drug on cardiac action potential duration (APD) and maximum rate of depolarization were studied. An anaethetized dog was cut open at the chest.
An adult mongrel dog was anaethetized with intravenous administration of pentobarbital, 30 mg/kg. The heart was quickly removed, and the right ventricular free wall was dissected in the Tyrode's solution. The right ventricular free wall was fixed within an incubator at 37° C., and field stimulation at 1 Hz was carried out. Intracellular potentials were measured by piercing glass microelectrodes (10-20 megaohms) into the Purkinje fiber and the wave form of cardiac action potential drawn on an oscilloBraun tube via an amplifier was analyzed by a computer. Value of APD was obtained at 75% of full repolarization (APD75). The drug was added to Tyrode's solution (20 ml) perfused through the specimen. The effect of the drug was expressed by a percent change in APD75 after incubation for 20 minutes with the control value of APD before application of the drug being taken as 100%.

in vivo = details: mouse, in vivo, po, LD50 p.o., p.o., 24 hours after administration, male ddY mice
Method: By using male ddY-strain 5-week old mice (3 to 4 per group), the compounds of general formula (1) were each administered orally or intraperitoneally as a solution in saline or as a suspension in methyl cellulose, and 24 hours after the administration, the toxicity of the compounds was evaluated.

[1] = tested on: right ventricle (effective refractory period); test: Activity on ERP of the right ventricle; type: in vivo, adult mongrel dog; details: Canis lupus familiaris, iv, ERP before drug = 100%, read-out: ERP % (ERP prolonging activity); for change in vivo at 0.1 mg/kg: 0.1 mg/kg i.v.; for change in vivo at 0.3 mg/kg: 0.3 mg/kg i.v.; for change in vivo at 1 mg/kg: 1 mg/kg i.v.
Method: The pharmacological effects of the compounds of this invention represented by general formula (1) were studied. By using the heart of an adult mongrel dog, the activity of the compounds of general formula (1) were tested in vitro and in vivo. The heart of an anaethetized dog was extracted and suspended in a chamber at 37° C. in Tyrode's solution. The drug was added to Tyrode's solution being perfused through the heart specimen, and electrophysiological effects of the drug on cardiac action potential duration (APD) and maximum rate of depolarization were studied. An anaethetized dog was cut open at the chest. […] In an anaethetized and open-chested adult mongrel dug, a silver-silver chloride electrode was sutured to the right ventricle, and ventricular pacing was performed at a stimulation interval of 400 msec for a duration time of 4 msec, twice diastolic threshold. Then, a small amount of alcohol was injected through the sinus artery to extinguish the pacemaker activity, and under ventricular pacing, ERP was measured. Ten stimulations were taken as one train, and the interval between trains when the response to the first stimulation disappeared was defined as ERP. […] ERP before drug administration (intravenously or intraduodenally) was taken as 100%, and ERP prolonging activity of the drugs was expressed by %.

Work on `CCCCCCCN(CC)CCCOc1ccc2c(c1)OCC2=O` [Compound 100] yielded an activation at 1 µg/mL (Purkinje fiber; dose 1 μg/ml) of 21% and an activation at 3 µg/mL (Purkinje fiber; dose 3 μg/ml) of 31%.

In the case of `CSC(=NC#N)N(C)CCCOc1ccc2c(c1)OCC2=O` [Compound 271], the LD50 at 24 h (in vivo) is reported as > 300 mg/kg.

For `CCCCCCC[N+](CC)(CC)CCCOc1cccc2c1OCC2=O` [Compound 295], the LD50 at 24 h (in vivo) was > 300 mg/kg.

For `O=C1COc2cc(OCCC[n+]3ccc(-c4ccccc4)cc3)ccc21` [Compound 1404], the LD50 at 24 h (in vivo) was > 300 mg/kg.

For `CCCCCCC[N+](CC)(CC)CCCOc1cccc2ccc(=O)oc12` [Compound 632], the activation at 3 µg/mL (Purkinje fiber; dose 3 μg/ml) was 44%, the activation at 10 µg/mL (Purkinje fiber; dose 10 μg/ml) was 18% and the LD50 at 24 h (in vivo) was > 300 mg/kg.

Work on `C=CCc1ccccc1OCC(O)C[N+](C)(C)C(C)C` (centres unmarked) [Compound 1020] yielded an activation at 1 µg/mL (Purkinje fiber; dose 1 μg/ml) of 10%, an activation at 3 µg/mL (Purkinje fiber; dose 3 μg/ml) of 14% and an activation at 10 µg/mL (Purkinje fiber; dose 10 μg/ml) of 19%.

With `CCCCCCCN(CC)CCCOc1ccc2c(c1)OCC2=O` [Compound 104] the “APD75 % (percent change in APD75)” value (Purkinje fiber; dose 1 μg/ml) was 21% and the “APD75 % (percent change in APD75)” value (Purkinje fiber; dose 3 μg/ml) was 30%.

In the case of `CCCCCCC[N+](CC)(CC)CCCOc1cc(OC)c2c(c1)OCC2=O` [Compound 290], the activation at 3 µg/mL (Purkinje fiber; dose 3 μg/ml) is reported as 11% and the activation at 10 µg/mL (Purkinje fiber; dose 10 μg/ml) is reported as 35%.

For `CCCCCCCN(CC)CCCOc1ccc2sc(=O)oc2c1` [Compound 952], the activation at 1 µg/mL (Purkinje fiber; dose 1 μg/ml) was 0%, the activation at 3 µg/mL (Purkinje fiber; dose 3 μg/ml) was 3% and the activation at 10 µg/mL (Purkinje fiber; dose 10 μg/ml) was 7%.

With `O=C1COc2cc(OCCCN3CCOCC3)ccc21` [Compound 1166] the activation at 1 µg/mL (Purkinje fiber; dose 1 μg/ml) was 4% and the activation at 3 µg/mL (Purkinje fiber; dose 3 μg/ml) was 6%.

`CCCN(CCCOc1ccc2c(c1)OCC2=O)CCOC` [Compound 180] showed an activation at 1 µg/mL (Purkinje fiber; dose 1 μg/ml) of 5%, an activation at 3 µg/mL (Purkinje fiber; dose 3 μg/ml) of 11% and an activation at 10 µg/mL (Purkinje fiber; dose 10 μg/ml) of 15%.

For `CCCCCCC[N+](CC)(CC)CCCOc1ccccc1C=CC(C)=O` [Compound 1022], the activation at 1 µg/mL (Purkinje fiber; dose 1 μg/ml) was 0%, the activation at 3 µg/mL (Purkinje fiber; dose 3 μg/ml) was 11% and the activation at 10 µg/mL (Purkinje fiber; dose 10 μg/ml) was 18%.

`CCCCCCC[N+](CC)(CC)CCCOc1ccc2c(C)c(C)c(=O)oc2c1` [Compound 634] showed an activation at 1 µg/mL (Purkinje fiber; dose 1 μg/ml) of 4%, an activation at 3 µg/mL (Purkinje fiber; dose 3 μg/ml) of 7% and an activation at 10 µg/mL (Purkinje fiber; dose 10 μg/ml) of 11%.

In the case of `CCCCCCC[N+](CC)(CC)CCCCc1ccc(Cl)cc1` [Clofilium, reference compound], the activation at 10 µg/mL (Purkinje fiber; dose 10 μg/ml) is reported as 15%, the change in vivo at 0.1 mg/kg [1] is reported as 7 ± 1.3% and the change in vivo at 0.3 mg/kg [1] is reported as 15.2 ± 2.4%. It also gave a change in vivo at 1 mg/kg [1] of 22.4 ± 1.6%.

In the case of `O=C1COc2cc(OCCCN3CCCCC3)ccc21` [Compound 1108], the activation at 1 µg/mL (Purkinje fiber; dose 1 μg/ml) is reported as 0%, the activation at 3 µg/mL (Purkinje fiber; dose 3 μg/ml) is reported as 7% and the “APD75 % (percent change in APD75)” value (Purkinje fiber; dose 10 μg/ml) is reported as 9%.

In the case of `COCCN(CCCOc1ccc2c(c1)OCC2=O)CCOC` [Compound 276], the activation at 1 µg/mL (Purkinje fiber; dose 1 μg/ml) is reported as 5%, the activation at 3 µg/mL (Purkinje fiber; dose 3 μg/ml) is reported as 12% and the activation at 10 µg/mL (Purkinje fiber; dose 10 μg/ml) is reported as 23%. For the same compound, the change in vivo at 0.1 mg/kg [1] was 0%, the change in vivo at 0.3 mg/kg [1] was 0% and the change in vivo at 1 mg/kg [1] was 7%. For the same compound, the change in vivo at 3 mg/kg ([1]; 3 mg/kg i.v.) was 7%.

For `CCN(CCCOc1ccc2c(c1)OCC2=O)C12CC3CC(CC(C3)C1)C2` [Compound 172], the activation at 1 µg/mL (Purkinje fiber; dose 1 μg/ml) was 0% and the activation at 3 µg/mL (Purkinje fiber; dose 3 μg/ml) was 8%.

In the case of `CCCCCCC[N+](CC)(CC)CCCOc1ccc2c(c1)OCC2` [Compound 422], the activation at 1 µg/mL (Purkinje fiber; dose 1 μg/ml) is reported as 0% and the activation at 3 µg/mL (Purkinje fiber; dose 3 μg/ml) is reported as 3%.

Work on `CC[N+]1(CCCOc2ccc3c(c2)OCC3=O)CCCC(C)C1` (centres unmarked) [Compound 1119] yielded an activation at 3 µg/mL (Purkinje fiber; dose 3 μg/ml) of 4%.

For `O=C1CCc2cc(OCCC[N+]34CN5CN(CN(C5)C3)C4)ccc21` [Compound 1400], the LD50 at 24 h (in vivo) was > 300 mg/kg.

In the case of `CC(C)NCC(O)COc1ccc2c(c1)OCC2=O` (centres unmarked) [Compound 272], the activation at 3 µg/mL (Purkinje fiber; dose 3 μg/ml) is reported as 8% and the activation at 10 µg/mL (Purkinje fiber; dose 10 μg/ml) is reported as 10%.

With `CS(=O)(=O)Nc1ccc(C2CCN(CCCOc3ccc4c(c3)OCC4=O)CC2)cc1` [Compound 1304] the LD50 at 24 h (in vivo) was > 300 mg/kg.

For `CCCN(CCCOc1ccc2c(c1)OCC2=O)CCC(=O)OCC` [Compound 281], the LD50 at 24 h (in vivo) was > 300 mg/kg.
